Structures can show the parent of a compound that is named as a salt.
Key:
[1] = tested on: Staphylococcus aureus Xen 36; experiment: In-vivo infection prevention study: X-ray and micro-CT signs of tibial osteomyelitis
Description: Bioluminescent strain Staphylococcus aureus Xen 36 (Caliper LifeSciences, Alameda, CA) was used to develop bone infection. The strain was stored in a glycerol (20% v/v) and Brain Heart Infusion (BHI) suspension at -80°C until required. Bacteria were subcultured onto an LB plate (Luria-Bertani, Miller broth mixed with 1.2% (w/v) Technical Agar (Difco, Sparks, MD.)), at 37°C overnight. Five colonies were then transferred to 3 mL LB broth and grown in shaker incubator (200 rpm), at 37°C for 2.5 h. Two milliliters of the bacterial suspension was transferred to 100 mL LB broth and grown for a further 4 h, until the cells reached exponential growth. Bacterial suspension was transferred into 50 mL centrifuge tubes and cells centrifuged at ~3,000 rpm for 30 min. Supernatants were discarded and pellets were re-suspended in 15 mL Phosphate Buffered Saline (PBS). Cells were then mixed by vortexing and the centrifugation process was repeated. This cell washing process was repeated three times. The final washed and pelleted cells were re-suspended in a total of 10 mL PBS, and mixed by vortexing. The cell suspension was then ten-fold serially diluted. The concentration of the cell suspension was then determined using the spread plate technique and spreading 100 μL of the various dilutions onto LB plates, in duplicate. Plates were incubated at 37°C overnight before counting colony forming units (CFU). […]

[2] = tested on: osteoblast (MC3T3-E1) cells; parameters: method as in Antoci et al. [39]; conditions: ref Antoci et al. [39]; cited from earlier work
[3] = tested on: human corneal endothelial cells; parameters: method as in Yoeruek et al. [40]; conditions: ref Yoeruek et al. [40]; cited from earlier work
[4] = In-vivo pharmacokinetic study: vancomycin in tibia, muscle and plasma after intramedullary delivery (HPLC); conditions: rat; for Mean vancomycin concentration in gastrocnemius muscle (ug drug/g tissue, AVE) / Mean vancomycin concentration in tibia (ug drug/g tissue, AVE): single 25 mg/Kg intramedullary dose to tibia, mean of n = 4; for Vancomycin in muscle, ug drug/g tissue / Vancomycin in plasma: single rat
[5] = single 25 mg/Kg intramedullary dose, 4 h, HPLC, sample 1-1
[6] = single 25 mg/Kg intramedullary dose, 4 h, HPLC, sample 1-3
[7] = single 25 mg/Kg intramedullary dose, 4 h, HPLC, sample 1-4
[8] = single 25 mg/Kg intramedullary dose, 6 h, HPLC, sample 2-1
[9] = single 25 mg/Kg intramedullary dose, 6 h, HPLC, sample 2-2
[10] = single 25 mg/Kg intramedullary dose, 6 h, HPLC, sample 2-3
[11] = single 25 mg/Kg intramedullary dose, 6 h, HPLC, sample 2-4
[12] = single 25 mg/Kg intramedullary dose, 12 h, HPLC, sample 3-1
[13] = single 25 mg/Kg intramedullary dose, 12 h, HPLC, sample 3-2
[14] = single 25 mg/Kg intramedullary dose, 12 h, HPLC, sample 3-3
[15] = single 25 mg/Kg intramedullary dose, 12 h, HPLC, sample 3-4
[16] = single 25 mg/Kg intramedullary dose, 24 h, HPLC, sample 4-1
[17] = single 25 mg/Kg intramedullary dose, 24 h, HPLC, sample 4-2
[18] = single 25 mg/Kg intramedullary dose, 24 h, HPLC, sample 4-3
[19] = single 25 mg/Kg intramedullary dose, 24 h, HPLC, sample 4-4
[20] = single 25 mg/Kg intramedullary dose, 48 h, HPLC, sample 5-1
[21] = single 25 mg/Kg intramedullary dose, 48 h, HPLC, sample 5-2
[22] = single 25 mg/Kg intramedullary dose, 48 h, HPLC, sample 5-4
[23] = single 25 mg/Kg intramedullary dose, 72 h, HPLC, sample 6-2
[24] = single 25 mg/Kg intramedullary dose, 72 h, HPLC, sample 6-3
[25] = single 25 mg/Kg intramedullary dose, 72 h, HPLC, sample 6-4
[26] = single 25 mg/Kg intramedullary dose, 96 h, HPLC, sample 7-1
[27] = single 25 mg/Kg intramedullary dose, 96 h, HPLC, sample 7-2
[28] = single 25 mg/Kg intramedullary dose, 96 h, HPLC, sample 7-3
[29] = single 25 mg/Kg intramedullary dose, 96 h, HPLC, sample 7-4
[30] = single 25 mg/Kg intramedullary dose, HPLC

CN[C@H](CC(C)C)C(=O)N[C@H]1C(=O)N[C@@H](CC(N)=O)C(=O)N[C@H]2C(=O)N[C@H]3C(=O)N[C@H](C(=O)N[C@H](C(=O)O)c4cc(O)cc(O)c4-c4cc3ccc4O)[C@H](O)c3ccc(c(Cl)c3)Oc3cc2cc(c3O[C@@H]2O[C@H](CO)[C@@H](O)[C@H](O)[C@H]2O[C@H]2C[C@](C)(N)[C@H](O)[C@H](C)O2)Oc2ccc(cc2Cl)[C@H]1O [vancomycin, vancomycin hydrochloride]
Vancomycin treated rats displaying radiographic signs of osteomyelitis ([1]; rat tibia inoculated with S. aureus Xen 36 (Log10 5.5 CFU/5 μL) with simultaneous single 25 mg/Kg intramedullary dose, 14 days, n = 9): zero | Micro CT evaluation of treated rats ([1]; rat tibia inoculated with S. aureus Xen 36, single 25 mg/Kg intramedullary dose, compared to untreated controls): absent of any signs of osteomyelitis | Doses that severely decreased cellular proliferation [2]: greater than 2 mg/mL | Vancomycin concentrations leading to near total destruction [3]: over 10 mg/mL | Vancomycin concentrations leading to significant reductions in viability [3]: higher than 5 mg/mL | Therapeutic or supra-therapeutic bone concentrations of vancomycin ([4]; local delivery to the medullary canal): > 100 µg/mL | Time the infused drug stays in the bone ([4]; single 25 mg/Kg intramedullary dose): at least 96 hours | Mean vancomycin concentration in gastrocnemius muscle (ug drug/g tissue, AVE) ([4]; 4 h, HPLC): 167.793 µg/g | Mean vancomycin concentration in tibia (ug drug/g tissue, AVE) ([4]; 4 h, HPLC): 818.068 µg/g | Mean vancomycin concentration in gastrocnemius muscle (ug drug/g tissue, AVE) ([4]; 6 h, HPLC): 90.1696 µg/g | Mean vancomycin concentration in tibia (ug drug/g tissue, AVE) ([4]; 6 h, HPLC): 784.095 µg/g | Mean vancomycin concentration in gastrocnemius muscle (ug drug/g tissue, AVE) ([4]; 12 h, HPLC): 29.0616 µg/g | Mean vancomycin concentration in tibia (ug drug/g tissue, AVE) ([4]; 12 h, HPLC): 359.143 µg/g | Mean vancomycin concentration in gastrocnemius muscle (ug drug/g tissue, AVE) ([4]; 24 h, HPLC): 0 µg/g | Mean vancomycin concentration in gastrocnemius muscle (ug drug/g tissue, AVE) ([4]; 48 h, HPLC): 0.99 µg/g | Mean vancomycin concentration in tibia (ug drug/g tissue, AVE) ([4]; 48 h, HPLC): 515.375 µg/g | Mean vancomycin concentration in gastrocnemius muscle (ug drug/g tissue, AVE) ([4]; 72 h, HPLC): 0.6895 µg/g | Mean vancomycin concentration in tibia (ug drug/g tissue, AVE) ([4]; 72 h, HPLC): 130.325 µg/g | Mean vancomycin concentration in gastrocnemius muscle (ug drug/g tissue, AVE) ([4]; 96 h, HPLC): 1.205 µg/g | Mean vancomycin concentration in tibia (ug drug/g tissue, AVE) ([4]; 96 h, HPLC): 110.095 µg/g | Vancomycin in muscle, ug drug/g tissue [4, 5]: 0 ug drug/g tissue | Vancomycin in plasma [4, 5]: 2.855 µg/mL | Vancomycin in muscle, ug drug/g tissue ([4]; single 25 mg/Kg intramedullary dose, 4 h, HPLC, sample 1-2): 0 ug drug/g tissue | Vancomycin in muscle, ug drug/g tissue [4, 6]: 0 ug drug/g tissue | Vancomycin in plasma [4, 6]: 2.69 µg/mL | Vancomycin in muscle, ug drug/g tissue [4, 7]: 671.173 ug drug/g tissue | Vancomycin in plasma [4, 7]: 8.576 µg/mL | Vancomycin in muscle, ug drug/g tissue [4, 8]: 0 ug drug/g tissue | Vancomycin in plasma [4, 8]: 0.1311 µg/mL | Vancomycin in muscle, ug drug/g tissue [4, 9]: 359.037 ug drug/g tissue | Vancomycin in plasma [4, 9]: 3.7319 µg/mL | Vancomycin in muscle, ug drug/g tissue [4, 10]: 0 ug drug/g tissue | Vancomycin in plasma [4, 10]: -0.165 µg/mL | Vancomycin in muscle, ug drug/g tissue [4, 11]: 1.642 ug drug/g tissue | Vancomycin in plasma [4, 11]: 0.01263 µg/mL | Vancomycin in muscle, ug drug/g tissue [4, 12]: 0 ug drug/g tissue | Vancomycin in plasma [4, 12]: -0.165 µg/mL | Vancomycin in muscle, ug drug/g tissue [4, 13]: 114.004 ug drug/g tissue | Vancomycin in plasma [4, 13]: 0.9602 µg/mL | Vancomycin in muscle, ug drug/g tissue [4, 14]: 2.243 ug drug/g tissue | Vancomycin in plasma [4, 14]: 1.434 µg/mL | Vancomycin in muscle, ug drug/g tissue [4, 15]: 0 ug drug/g tissue | Vancomycin in plasma [4, 15]: 0.747 µg/mL | Vancomycin in muscle, ug drug/g tissue [4, 16]: 0 ug drug/g tissue | Vancomycin in plasma [4, 16]: 0.2258 µg/mL | Vancomycin in muscle, ug drug/g tissue [4, 17]: 0 ug drug/g tissue | Vancomycin in plasma [4, 17]: 0.9365 µg/mL | Vancomycin in muscle, ug drug/g tissue [4, 18]: 0 ug drug/g tissue | Vancomycin in plasma [4, 18]: 0.3917 µg/mL | Vancomycin in muscle, ug drug/g tissue [4, 19]: 0 ug drug/g tissue | Vancomycin in plasma [4, 19]: 0.6404 µg/mL | Vancomycin in muscle, ug drug/g tissue [4, 20]: 0 ug drug/g tissue | Vancomycin in plasma [4, 20]: 0.8299 µg/mL | Vancomycin in muscle, ug drug/g tissue [4, 21]: 0 ug drug/g tissue | Vancomycin in plasma [4, 21]: 0.7352 µg/mL | Vancomycin in muscle, ug drug/g tissue ([4]; single 25 mg/Kg intramedullary dose, 48 h, HPLC, sample 5-3): 0 ug drug/g tissue | Vancomycin in muscle, ug drug/g tissue [4, 22]: 3.96 ug drug/g tissue | Vancomycin in plasma [4, 22]: 0.593 µg/mL | Vancomycin in muscle, ug drug/g tissue ([4]; single 25 mg/Kg intramedullary dose, 72 h, HPLC, sample 6-1): 0 ug drug/g tissue | Vancomycin in muscle, ug drug/g tissue [4, 23]: 0 ug drug/g tissue | Vancomycin in plasma [4, 23]: -0.03475 µg/mL | Vancomycin in muscle, ug drug/g tissue [4, 24]: 2.758 ug drug/g tissue | Vancomycin in plasma [4, 24]: 0.04816 µg/mL | Vancomycin in muscle, ug drug/g tissue [4, 25]: 0 ug drug/g tissue | Vancomycin in plasma [4, 25]: 0.2495 µg/mL | Vancomycin in muscle, ug drug/g tissue [4, 26]: 0 ug drug/g tissue | Vancomycin in plasma [4, 26]: -0.165 µg/mL | Vancomycin in muscle, ug drug/g tissue [4, 27]: 0 ug drug/g tissue | Vancomycin in plasma [4, 27]: -0.165 µg/mL | Vancomycin in muscle, ug drug/g tissue [4, 28]: 4.819 ug drug/g tissue | Vancomycin in plasma [4, 28]: -0.165 µg/mL | Vancomycin in muscle, ug drug/g tissue [4, 29]: 0 ug drug/g tissue | Vancomycin in plasma [4, 29]: -0.165 µg/mL | Vancomycin concentration in the gastrocnemius muscle, first 4h post administration [4, 30]: > 100 µg/g | Vancomycin level in the gastrocnemius muscle by 24h [4, 30]: near undetectable levels | Vancomycin concentration detected in the tibia over the 96-h study period ([4]; single 25 mg/Kg intramedullary dose, HPLC of pulverized tissue): > 100 µg/g | Vancomycin detected in the blood plasma for the entirety of the study ([4]; single 25 mg/Kg intramedullary dose, HPLC, 96 h study): Little to no vancomycin was detected | Time a supratherapeutic antimicrobial dose (>100 μg/mL) was maintained in the surrounding muscle ([4]; single 25 mg/Kg intramedullary dose, n = 4 per time point): < 6 h
